Test results taken from ChEMBL document CHEMBL3046677, “Diastereoselective synthesis of the model insect antifeedants related to azadiradione and epoxyazadiradione based on intramolecular insertion of -aryl--diazoketones” (1998).

These compounds were tested on Spodoptera frugiperda (assay: Antifeedant activity against Spodoptera frugiperda (fall armyworm) assessed as antifeedant index at 100 ppm).
Assay type: functional
Compound `C[C@@H]1CCC[C@@]2(C)[C@H](c3ccoc3)C(=O)[C@H]3O[C@]132` (racemic) has an AFI of 29%. `O=C1[C@H]2O[C@]23CCCC[C@H]3[C@@H]1c1ccsc1` (racemic) was tested, and the AFI was 36%. For `O=C1[C@H]2O[C@]23CCCC[C@H]3[C@@H]1c1ccccc1` (racemic), the AFI was -12%. Compound `O=C1C=C2CCCC[C@H]2[C@@H]1c1ccccc1` (racemic) has an AFI of 40%. `O=C1C=C2CCCC[C@H]2[C@@H]1c1ccsc1` (racemic) gave an AFI of 1%. `O=C1C=C2CCCC[C@H]2[C@@H]1c1ccoc1` (racemic) showed an AFI of 42%.

These compounds were tested on Spodoptera littoralis (assay: Antifeedant activity against Spodoptera littoralis assessed as antifeedant index at 100 ppm).
Assay type: functional
Work on `CC1(C)CCC[C@]2(C)C1=CC(=O)[C@H]2c1ccoc1` (racemic) yielded an AFI of 16%. Work on `CC1(C)CCC[C@@]2(C)[C@H](c3ccoc3)C(=O)[C@H]3O[C@@]312` (racemic) yielded an AFI of 28%. For `CC1(C)CCC[C@@]2(C)[C@H](c3ccoc3)C(=O)[C@H]3O[C@@]312` (stereo in doubt; (+)), the AFI was 55%. `CC1(C)CCC[C@@]2(C)[C@H](c3ccoc3)C(=O)[C@H]3O[C@@]312` (stereo in doubt; (-)) gave an AFI of 32%. `CC(=O)O[C@@H]1C[C@H]2C(C)(C)C(=O)C=C[C@]2(C)[C@H]2CC[C@]3(C)C(=CC(=O)[C@H]3c3ccoc3)[C@@]21C` [AZADIRADIONE] showed an AFI of 1%. `CC(=O)O[C@@H]1C[C@H]2C(C)(C)C(=O)C=C[C@]2(C)[C@H]2CC[C@@]3(C)[C@H](c4ccoc4)C(=O)[C@H]4O[C@]43[C@@]21C` [EPOXYAZADIRADIONE] gave an AFI of 22%.
